From patent US7329688B2, “Natural vitamin E compositions with superior antioxidant potency” (Soft Gel Technologies, Inc., priority 2002, dated 2008)

Assay: Oxygen radical absorbance capacity (ORACFL-LIPO) assay with fluorescein probe, RMCD, AAPH, Trolox standard
Conditions: for Antioxidant activity (ORAC), μmole Trolox equivalent per gram sample: 75 mM phosphate buffer pH 7.4, 7% RMCD; for Antioxidant activity (ORAC) per 400 IU: μmole TE/g × total weight in grams of formula which gives 400 IU
Experimental: The antioxidant activities of natural d-alpha-tocopherol, mixed tocopherols and tocotrienols, and formulations comprising all forms of vitamin E were determined employing an improved oxygen radical absorbance capacity (ORAC) assay using fluorescein (FL) as a fluorescent probe, randomly methylated β-cyclodextrin (RMCD) to enhance solubility of lipophilic antioxidants in aqueous medium, 2,2′-azobis (2-amidino-propane) dihydrochloride (AAPH) as peroxyl radical generator, and Trolox as a standard in 75 mM phosphate buffer.
The antioxidant activity, commonly referred to as oxygen radical absorbance capacity (ORAC), of a lipophilic substance was measured employing a newly developed assay. This assay is based on the use of: (a) fluorescein (FL) as the fluorescent probe, (b) randomly methylated β-cyclodextrin (RMCD) as a molecular host to enhance the solubility of lipophilic antioxidants in aqueous solution, (c) 2,2′-azobis (2-amidino-propane) dihydrochloride (AAPH) as a peroxyl radical generator, and (d) 6-hydroxy-2,5,7,8-tetramethyl-2-carboxylic acid (Trolox) as a standard in 75 mM phosphate buffer (pH 7.4).
The antioxidant activities of vitamin E formulations comprising all compounds of tocopherols and tocotrienols were determined employing an improved oxygen radical absorbance capacity (abbreviated ORACFL-LIPO) assay using fluorescein (FL) as the fluorescent probe, randomly methylated β-cyclodextrin (RMCD) as the water solubility enhancer for lipophilic antioxidants in 75 mM phosphate buffer (pH 7.4).
In the presence ofperoxyl radicals derived from AAPH, the indicator FL gradually loses its fluorescence. The antioxidant activity of a substance is measured by its ability to retain the fluorescence of FL in the presence of peroxyl radicals. The net protection of FL was measured as previously described by Ou et al.
All other standards were commercially available form Sigma or Aldrich. All ORAC analyses were performed on a COBAS FARA II analyzer (Roche Diagnostic System Inc., Branchburg, NJ) using an excitation wavelength of 493 nm and an emission filter of 515 nm.
Approximately 0.5 g of sample was dissolved in 20 mL of acetone. An aliquot of sample solution was appropriately diluted with 7% RMCD solvent (w/v) made in a 50% acetone-water mixture (v/v) and was shaken for 1 hr at room temperature on an orbital shaker at 400 rpm. The sample solution was ready for analysis after further dilution with 7% RMCD solvent.
The automated ORAC assay was carried out on a COBAS FARA II spectrofluorometer centrifugal analyzer as previously described (9). With the exception of samples and Trolox standards, which were made in 7% RMCD solvent, all other reagents were prepared at 75 mM phosphate buffer (pH 7.4). In the final assay mixture (0.4 mL total volume), FL (6.3×10^−8 M) was used as a target of free radical attack and AAPH (1.28×10^−2 M) was used as a peroxyl radical generator. 7% RMCD was used as the blank, and Trolox (12.5, 25,50, and 100 μM) was used as the control standard. The analyzer was programmed to record the fluorescence of FL every minute after the addition of AAPH. All measurements were expressed relative to the initial reading. Final results were calculated using the differences of areas under the FL decay curves between the blank and a sample.
The antioxidant activity, commonly referred to as oxygen radical absorbance capacity (ORAC), of a lipophilic substance was measured employing a newly developed assay. This assay is based on the use of: (a) fluorescein (FL) as the fluorescent probe, (b) randomly methylated β-cyclodextrin (RMCD) as a molecular host to enhance the solubility of lipophilic antioxidants in aqueous solution, (c) 2,2′-azobis (2-amidino-propane) dihydrochloride (AAPH) as a peroxyl radical generator, and (d) 6-hydroxy-2,5,7,8-tetrmethyl-2-carboxylic acid (Trolox) as a standard in 75 mM phosphate buffer (pH 7.4).
In the presence of peroxyl radicals derived from AAPH, the indicator FL gradually loses its fluorescence. […]

SMILES	Antioxidant activity (ORAC), μmole Trolox equivalent per gram sample (Table 1)	Antioxidant activity (ORAC), μmole Trolox equivalent per gram sample (Table 1, listed as alpha-tocopherol (87%))	Antioxidant activity (ORAC), μmole Trolox equivalent per gram sample (Table 1, listed as d-alpha-tocopherol (87%))	Antioxidant activity (ORAC) per 400 IU (Table 1)	Antioxidant activity (ORAC), μmole Trolox equivalent per gram sample (Table 2)	Antioxidant activity (ORAC) per 400 IU (Table 2)	Antioxidant activity (ORAC) in words, relative to d-alpha-tocopherol (qualitative statement)
Cc1c(C)c2c(c(C)c1O)CC[C@@](C)(CCC[C@H](C)CCC[C@H](C)CCCC(C)C)O2 [d-alpha-Tocopheral (87%), d-alpha-tocopherol]	1,293 ± 64 μmole TE/g	1,293 μmole TE/g	1,293 μmole TE/g	398 μmole TE/400IU	1,293 ± 80 μmole TE/g	413 μmole TE/400IU	–
CC(=O)Oc1c(C)c(C)c2c(c1C)CCC(C)(CCC[C@H](C)CCC[C@H](C)CCCC(C)C)O2 (stereo partly drawn) [Alpha-Tocopherol Acetate]	14 ± 10 μmole TE/g	–	–	–	–	–	no antioxidant activity
